# Source: article PMC6539868, “Syntheses and Biological Studies of Cu(II) Complexes Bearing Bis(pyrazol-1-yl)- and Bis(triazol-1-yl)-acetato Heteroscorpionate Ligands” (Molecules, 2019)
# Legend:
# [1] = system: panel of human cancer cell lines derived from solid tumors; assay: MTT cytotoxicity, whole panel of human cancer cell lines; format: cell-based; conditions: mean over the cell lines of Table 2, 72 h
# Description: (§1) The growth inhibitory effect towards 2D tumor cell lines was evaluated by means of MTT assay as previously described. IC50 values were calculated by four parameters logistic (4-PL) model. All the values are the means ± SD of not less than five measurements starting from three different cell cultures.
# (§2) The in vitro antitumor activity of copper(II) complexes 1–3 and the uncoordinated ligands [HC(COOH)(pz^Me2)2], [HC(COOH)(pz)2] and [HC(COOH)(tz)2] was evaluated against a panel of human cancer cell lines derived from solid tumors. Adherent cell lines representative of cervical (A431), pancreatic (BxPC3) colon (HCT-15), breast (MCF-7), lung (A549), and ovarian (2008) cancers, differently sensitive to cisplatin, were exposed to the indicated compounds for 72 h.
# (§3) HCT-15 colon cancer cells are notoriously poorly chemosensitive to cisplatin. […] As for cisplatin, the clinical effectiveness of OXP is seriously hampered by the cancer cell resistance and, at present, few other drug regimens are available for patients with OXP-refractory colorectal cancers. […] The RF values (calculated by dividing IC50 for resistant cells by those for sensitive ones) were about 10 times lower than that of OXP, excluding the occurrence of cross-resistance phenomena.
# Solubility = format: physicochemical
# LoVo cells [2] = assay: Cellular uptake (intracellular copper by GF-AAS); format: cell-based, human; conditions: 24 h, 2 μM
# Description: LoVo cells (2.5 × 10^6) were seeded in 75 cm^2 flasks in growth medium (20 mL). After overnight incubation, the medium was replaced, and the cells were treated with tested compounds for 24 h. Cell monolayers were then processed and mineralized as previously described. The sample was analyzed for copper by using a Varian AA Duo graphite furnace atomic absorption spectrometer (Varian, Palo Alto, CA, USA) at the wavelength of 324 nm. The calibration curve was obtained using known concentrations of standard solutions purchased from Sigma Chemical Co.
# With the purpose of underling a possible correlation between cellular uptake efficiency and cytotoxicity, LoVo cells were treated for 24 h with equimolar concentrations (2 μM) of copper(II) complexes and the intracellular copper amount was quantified by means of Graphite Furnace Atomic Absorption Spectrometry (GF-AAS) analysis. […] In fact, the intracellular copper content detected in LoVo cells follows the same cytotoxicity trend 1 > 2 > 3.
# Stability to air = format: physicochemical; conditions: also as solutions
# LoVo = assay: MTT cytotoxicity assay, cross-resistance profile; format: cell-based, human; conditions: 72 h, MTT test, oxaliplatin-sensitive colon cancer cells; read-out: IC50 (µM) ± S.D. LoVo
# Text: (§4) Human lung (A549), colon (HCT-15 and LoVo) and breast (MCF-7) carcinoma cell lines were obtained from American Type Culture Collection (ATCC, Rockville, MD, USA). Human pancreatic BxPC3 carcinoma cells were obtained from European Collection of Cell Culture (ECACC, Salisbury, UK). Human ovarian 2008 cancer cells were kindly provided by Prof. G. Marverti (Dept. of Biomedical Science of Modena University, Modena, Italy). Human squamous cervical A431 carcinoma cells were kindly provided by Prof. F. Zunino (Division of Experimental Oncology B, Istituto Nazionale dei Tumori, Milan, Italy). The LoVo-OXP cells were obtained as previously described. Cell lines were maintained in culture in the logarithmic phase at 37 °C in a 5% carbon dioxide atmosphere using the following media added of 10% fetal calf serum (Euroclone, Milan, Italy), antibiotics (50 units/mL penicillin and 50 μg/mL streptomycin), and 2 mM L-glutamine: (i) RPMI-1640 medium (Euroclone) for HCT-15, A431, MCF-7, BxPC3 and 2008 cells; (ii) F-12 HAM’S (Sigma Chemical Co.) for A549, LoVo and LoVo-OXP cells.
# as §1, §3
# LoVo-OXP = assay: MTT cytotoxicity assay, cross-resistance profile; format: cell-based, human
# Text: as §4, §1, §3
# MCF-7 = assay: MTT cytotoxicity assay, 2D monolayer; format: cell-based, human; conditions: 72 h, MTT test, breast carcinoma; read-out: IC50 (µM) ± S.D. MCF-7
# Text: as §4, §1, §2
# A549 = assay: MTT cytotoxicity assay, 2D monolayer; format: cell-based, human; conditions: 72 h
# Text: as §4, §1, §2
# BxPC3 = assay: MTT cytotoxicity assay, 2D monolayer; format: cell-based, human; conditions: 72 h, MTT test, pancreatic carcinoma; read-out: IC50 (µM) ± S.D. BxPC3
# Text: as §4, §1, §2
# 2008 = assay: MTT cytotoxicity assay, 2D monolayer; format: cell-based, human; conditions: 72 h, MTT test, ovarian cancer; read-out: IC50 (µM) ± S.D. 2008
# Text: as §4, §1, §2
# A431 = assay: MTT cytotoxicity assay, 2D monolayer; format: cell-based, human; conditions: 72 h, MTT test, cervical carcinoma; read-out: IC50 (µM) ± S.D. A431
# Text: as §4, §1, §2
# HCT-15 = assay: MTT cytotoxicity assay, 2D monolayer; format: cell-based, human; conditions: 72 h
# Text: as §4, §1, §2
# LoVo cells [3] = assay: Transmission electron microscopy (TEM) analysis; format: cell-based, human; conditions: IC50 of compound, 24 h
# Description: Approximately 10^6 LoVo cells were seeded in 24-well plates and, after 24 h incubation, treated with 1 and incubated further 24 h. Samples were then washed with cold PBS, harvested and fixed with 1.5% glutaraldehyde buffer with 0.2 M sodium cacodylate, pH 7.4. After washing with buffer and post-fixation with 1% OsO4 in 0.2 M cacodylate buffer, samples were desiccated and embedded in epoxy resin (Epon Araldite). Sagittal serial sections of about 1 μm were counterstained with toluidine blue; subsequently, sections of 90 nm were stained with uranyl acetate and lead citrate.
# Micrographs were taken with a Hitachi H-600 electron microscope (Hitachi, Tokyo, Japan) at 75 kV. All photos were elaborated in Corel Draw 11 (Corel Corporation, Ottawa, ON, Canada).
# Transmission electron microscopy (TEM) analysis has been performed in order to investigate the influence of copper compounds on LoVo cells morphology and their organelles.
# [4] = system: HCT-15 colon cancer cell spheroids; assay: Acid phosphatase (APH) assay in 3D spheroids; format: cell-based, human; conditions: 72 h, APH test, read-out: IC50 (µM) ± S.D. HCT-15 spheroids
# Description: Spheroid cultures were obtained by seeding 2.5 × 10^3 HCT-15 cells/well in round bottom non-tissue culture treated 96 well-plate (Greiner Bio-one, Kremsmünster, Austria) in phenol red free RPMI-1640 medium (Sigma Chemical Co.), containing 10% FCS and supplemented with 20% methyl cellulose stock solution.
# An APH modified assay was used for determining cell viability in 3D spheroids, as previously described. IC50 values were calculated with a four parameter logistic (4-PL) model. All the values are the means ± SD of not less than four independent experiments.
# The in vitro antitumor efficacy of the newly developed compounds was also tested on 3D colon cancer cell culture models. Differently from 2D monolayer culture, 3D spheroid cell culture systems comprise cancer cells in various cell growth stages. Consequently, the multicellular cancer spheroid model is recognized to better reflect the tumor mass in vivo regarding drug permeation, cell interactions, gene expression, hypoxia and nutrient gradients with respect to monolayer cell cultures. Table 4 summarizes the IC50 values obtained after treatment of 3D cell spheroids of human HCT-15 colon cancer cells with copper(II) compounds as well as with cisplatin, as reference drug. In accordance with 2D chemosensitivity assays, complex 3 was scarcely effective, whereas complex 1 was as effective as cisplatin. […] We hypothesize that in this non-proliferative and very resistant tumor model the higher lipophilicity of 1, due to the presence of methyl substituents on the pyrazolyl rings, might be responsible for the enhanced compound penetration in the core area of spheroids.
# LoVo cells [5] = assay: ROS production (CM-H2DCFDA); format: cell-based, human; conditions: 15 μM complexes, antimycin 3 μM
# Description: The production of ROS was measured in LoVo cells (10^4 per well) grown for 24 h in a 96-well plate in RPMI medium without phenol red. Samples were loaded with 10 μM 5-(and-6)-chloromethyl-2′,7′-dichlorodihydrofluorescein diacetate acetyl ester (CM-H2DCFDA) (Molecular Probes-Invitrogen, Eugene, OR, USA) for 25 min, in the dark. Afterward, each well was washed with PBS and incubated with tested complexes. The fluorescence intensity in each well was assessed by means of a Fluoroskan Ascent FL (Labsystem, Vantaa, Finland) plate reader (ex: 485 nm; em: 527 nm). Antimycin (3 μM, Sigma), a well-known inhibitor of the electron transport chain at Complex III level, was used as reference compound.
# It has been documented that oxidative stress and generation of ROS play a significant role in anticancer activity of copper(II) compounds [22, 81]. To explore the molecular mechanisms underlying the cytotoxicity of newly synthetized copper(II) complexes, cellular production of ROS upon treatment with 15 μM of complex 1, 2 or 3 was monitored in LoVo cells by using the peroxide-sensitive fluorescent probe CM-H2DCFDA (Figure 5). […] Conversely, for all copper complexes there was no ROS induction.
molecule,measurement,setting,value
"Cc1cc(C)n(C(C(=O)O)n2nc(C)cc2C)n1.Cc1cc(C)n(C(C(=O)[O-])n2nc(C)cc2C)n1.[Cu+2].[O-][Cl+3]([O-])([O-])[O-] [compound 1, [HC(COOH)(pz^Me2)2]Cu[HC(COO)(pz^Me2)2]·ClO4]",IC50,[1],6.5 µM
same,"solubility in methanol, DMSO and acetonitrile","Solubility; methanol, DMSO, acetonitrile",soluble
same,solubility in water,Solubility; water,slightly soluble
same,cellular uptake efficiency (intracellular copper amount),LoVo cells [2],taken up slightly more efficiently than complex 2
same,air stability,Stability to air,air stable even as solutions
same,IC50,LoVo,4.2 ± 0.9 µM
same,IC50,"LoVo-OXP; 72 h, MTT test, oxaliplatin-resistant colon cancer cells, read-out: IC50 (µM) ± S.D. LoVo-OXP",5.2 ± 0.6 µM
same,RF times lower than that of OXP,LoVo-OXP; LoVo-OXP/LoVo,about 10 times
same,RF (resistance factor),"LoVo-OXP; RF = IC50 (resistant cells)/IC50 (wild-type cells), LoVo-OXP/LoVo",1.2
same,IC50,MCF-7,10.5 ± 2.1 µM
same,IC50,"A549; MTT test, lung carcinoma, read-out: IC50 (µM) ± S.D. A549",3.6 ± 0.5 µM
same,fold more effective than cisplatin,"A549; A549 cells, MTT",roughly 2 fold
same,IC50,BxPC3,2.5 ± 0.4 µM
same,IC50,2008,10.8 ± 1.3 µM
same,IC50,A431,3.8 ± 1.1 µM
same,IC50,"HCT-15; MTT test, colon carcinoma, read-out: IC50 (µM) ± S.D. HCT-15",8.5 ± 0.6 µM
same,fold more effective than cisplatin,"HCT-15; HCT-15 cells, MTT",roughly 2 fold
same,cytoplasmic vacuolization (TEM morphology),LoVo cells [3],massive cytoplasmic vacuolization
same,hallmarks of apoptosis (TEM morphology),LoVo cells [3],no classical hallmarks of apoptosis
same,IC50,[4],67.8 ± 14.9 µM
Antimycin,ROS production,LoVo cells [5],markedly stimulated ROS formation
